From patent publication US20140120036A1, “RADIOLABELED 5-HT6 LIGANDS” (AbbVie Inc., priority 2012, published 2014)
pKi: −log10 of the molar value. Where two headings read alike, the source gives them in different places.

Assays:
[1] = Brain regional distribution of [3H]compound relative to cerebellum; assay type: in vivo
[2] = biological target: T1, h-5-HT6 receptor (Homo sapiens, UniProt P50406); assay: 5-HT6 receptor binding assay ([3H]-LSD displacement, HEK293 membranes); conditions: human 5-HT6
T1 construct: expressed in transfected cells
T1 sequence (P50406 whole entry): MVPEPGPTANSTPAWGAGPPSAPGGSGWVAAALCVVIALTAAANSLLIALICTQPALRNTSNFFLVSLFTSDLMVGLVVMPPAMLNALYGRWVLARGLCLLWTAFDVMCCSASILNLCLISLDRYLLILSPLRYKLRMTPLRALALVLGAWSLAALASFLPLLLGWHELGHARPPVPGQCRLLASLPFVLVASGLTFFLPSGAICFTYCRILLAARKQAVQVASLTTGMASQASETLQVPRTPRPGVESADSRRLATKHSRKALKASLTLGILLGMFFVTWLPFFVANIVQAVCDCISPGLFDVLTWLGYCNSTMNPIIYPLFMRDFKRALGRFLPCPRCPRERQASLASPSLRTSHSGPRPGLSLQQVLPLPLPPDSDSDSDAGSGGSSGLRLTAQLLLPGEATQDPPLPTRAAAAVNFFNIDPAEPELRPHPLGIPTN
Description: The cells were collected by centrifugation at 500 g for 10 min. at 4° C., washed with PBS and centrifuged (500 g, 10 min. 4° C.). The pellets were stored at −80° C. until use. For membrane preparation, the thawed cell pellet was resuspended in ice-cold sucrose buffer (0.25 M sucrose, 10 mM Hepes (pH 7.4), 1 mM Phenylmethylsulfonyl fluoride (PMSF) in DMSO, […] Pepstatin-A, 3 mM EDTA, 0.025% Bacitracin) and homogenized with a Branson Sonifier W-250 (Settings: Timer 4; Output Control 3; Duty Cycle constant; 2 to 3 cycles). Cell disruption was checked with the aid of a microscope. Remaining unbroken cells were pelleted at 1,000 g for 10 min. at 4° C. The sucrose buffer supernatant was then centrifuged at 60,000 g for 1 h at 4° C. […] Protein concentration was determined (BCA-Kit; Pierce) and aliquots stored at −80° C. or in liquid nitrogen for long-term storage.
After the plates had been dried for 2 h at 55° C. in a drying chamber scintillation cocktail (BetaPlate Scint; PerkinElmer) was added. Radioactivity was measured in a Microbeta Trilux two hours after the addition of the scintillation mixture. Data derived from liquid scintillation counting were analysed by iterative non-linear regression analysis with the use of the Statistical Analysis System (SAS): a program similar to “LIGAND” as described by Munson and Rodbard (Analytical Biochemistry 107, 220-239 (1980). […]

[3] = biological target: T2, h-5-HT2A receptor (Homo sapiens, UniProt P28223); assay: 5-HT2A receptor binding assay ([125I]-DOI displacement, CHO-K1 membranes)
T2 construct: purchased Perkin Elmer ES-3,3-M400UA; host or cells: CHO-K1 cell membranes
T2 sequence (P28223 whole entry): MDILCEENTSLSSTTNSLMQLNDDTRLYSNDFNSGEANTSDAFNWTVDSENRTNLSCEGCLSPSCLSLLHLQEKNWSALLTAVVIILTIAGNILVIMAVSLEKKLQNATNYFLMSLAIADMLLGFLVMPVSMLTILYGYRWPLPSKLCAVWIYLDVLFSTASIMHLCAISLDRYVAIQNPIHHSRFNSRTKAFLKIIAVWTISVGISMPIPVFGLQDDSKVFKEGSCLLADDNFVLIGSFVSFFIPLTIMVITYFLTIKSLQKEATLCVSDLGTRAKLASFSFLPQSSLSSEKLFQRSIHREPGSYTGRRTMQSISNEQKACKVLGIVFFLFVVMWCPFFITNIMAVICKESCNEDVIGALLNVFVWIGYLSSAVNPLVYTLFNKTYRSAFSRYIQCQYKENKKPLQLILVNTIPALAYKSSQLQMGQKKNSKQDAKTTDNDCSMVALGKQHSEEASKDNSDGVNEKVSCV
Description: The cells were collected by centrifugation at 500 g for 10 min. at 4° C., washed with PBS and centrifuged (500 g, 10 min. 4° C.). The pellets were stored at −80° C. until use. For membrane preparation, the thawed cell pellet was resuspended in ice-cold sucrose buffer (0.25 M sucrose, 10 mM Hepes (pH 7.4), 1 mM Phenylmethylsulfonyl fluoride (PMSF) in DMSO, […] Pepstatin-A, 3 mM EDTA, 0.025% Bacitracin) and homogenized with a Branson Sonifier W-250 (Settings: Timer 4; Output Control 3; Duty Cycle constant; 2 to 3 cycles). Cell disruption was checked with the aid of a microscope. Remaining unbroken cells were pelleted at 1,000 g for 10 min. at 4° C. The sucrose buffer supernatant was then centrifuged at 60,000 g for 1 h at 4° C. (Beckman Ultrazentrifuge XL 80). The pellet was resuspended in 30 ml ice-cold Tris buffer (20 mM TRIS (pH 7.4), […] Pepstatin A, 0.1 mM PMSF, 3 mM EDTA) by pipetting through a 10 ml serological pipet and centrifuged for 1 h at 4° C. at 60,000 g. A final resuspension was performed in a small volume of ice-cold Tris buffer (see above) by pressing through a serological pipet followed by ultrasonic treatment with a Branson Sonifier W-250 (Settings: Timer 1; Output Control 3; Duty Cycle constant; 1 cycle). Protein concentration was determined (BCA-Kit; Pierce) and aliquots stored at −80° C. or in liquid nitrogen for long-term storage.
After the plates had been dried for 2 h at 55° C. in a drying chamber scintillation cocktail (BetaPlate Scint; PerkinElmer) was added. Radioactivity was measured in a Microbeta Trilux two hours after the addition of the scintillation mixture. Data derived from liquid scintillation counting were analysed by iterative non-linear regression analysis with the use of the Statistical Analysis System (SAS): a program similar to “LIGAND” as described by Munson and Rodbard (Analytical Biochemistry 107, 220-239 (1980).
Data derived from liquid scintillation counting were analyzed by iterative non-linear regression analysis with the use of the Statistical Analysis System (SAS): a program similar to “LIGAND” as described by Munson and Rodbard (Anal. Biochem. 1980, 107, 220-239). Fitting was performed according to formulae described by Feldman (Anal. Biochem. 1972, 48, 317-338).

[4] = biological target: T3, h-5-HT2B receptor (Homo sapiens, UniProt P41595); assay: 5-HT2B receptor binding assay ([125I]-DOI displacement, CHO-K1 membranes); conditions: text
T3 construct: purchased Perkin Elmer ES-3,4-M400UA; host or cells: CHO-K1 cell membranes
T3 sequence (P41595 whole entry): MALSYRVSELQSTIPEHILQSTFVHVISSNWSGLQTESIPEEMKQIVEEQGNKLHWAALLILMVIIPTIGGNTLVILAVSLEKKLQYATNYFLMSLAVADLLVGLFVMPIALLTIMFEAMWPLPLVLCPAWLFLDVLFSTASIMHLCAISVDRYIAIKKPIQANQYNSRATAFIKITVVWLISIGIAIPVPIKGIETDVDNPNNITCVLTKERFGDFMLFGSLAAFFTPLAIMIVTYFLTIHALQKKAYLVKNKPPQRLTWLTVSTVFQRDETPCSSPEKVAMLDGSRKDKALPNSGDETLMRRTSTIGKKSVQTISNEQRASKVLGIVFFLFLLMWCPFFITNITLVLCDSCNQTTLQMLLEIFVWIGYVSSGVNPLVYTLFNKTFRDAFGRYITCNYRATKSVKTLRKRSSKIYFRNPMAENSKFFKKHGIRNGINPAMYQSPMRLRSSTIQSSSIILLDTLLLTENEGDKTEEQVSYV
Description: Cells from stable clonal cell lines expressing the corresponding receptor (5-HT6, 5-HT2A or 5-HT2B receptors) were washed with PBS with 0.02% EDTA. The cells were collected by centrifugation at 500 g for 10 min. at 4° C., washed with PBS and centrifuged (500 g, 10 min. 4° C.). The pellets were stored at −80° C. until use. For membrane preparation, the thawed cell pellet was resuspended in ice-cold sucrose buffer (0.25 M sucrose, 10 mM Hepes (pH 7.4), 1 mM Phenylmethylsulfonyl fluoride (PMSF) in DMSO, […] Pepstatin-A, 3 mM EDTA, 0.025% Bacitracin) and homogenized with a Branson Sonifier W-250 (Settings: Timer 4; Output Control 3; Duty Cycle constant; 2 to 3 cycles). Cell disruption was checked with the aid of a microscope. Remaining unbroken cells were pelleted at 1,000 g for 10 min. at 4° C. The sucrose buffer supernatant was then centrifuged at 60,000 g for 1 h at 4° C. (Beckman Ultrazentrifuge XL 80). […] Protein concentration was determined (BCA-Kit; Pierce) and aliquots stored at −80° C. or in liquid nitrogen for long-term storage.
All receptor binding experiments were carried out in the corresponding assay buffer in a total volume of 200 μl in the presence of various concentrations of test compound (10 ^−5 M to 10^−9 M, tenfold serial dilution, duplicate determinations). […] Radioactivity was measured in a Microbeta Trilux two hours after the addition of the scintillation mixture. […]

[5] = biological target: Rat 5-HT6 (Rattus norvegicus, UniProt P31388); assay: Rat 5-HT6 binding
Rat 5-HT6, sequence (P31388 whole entry): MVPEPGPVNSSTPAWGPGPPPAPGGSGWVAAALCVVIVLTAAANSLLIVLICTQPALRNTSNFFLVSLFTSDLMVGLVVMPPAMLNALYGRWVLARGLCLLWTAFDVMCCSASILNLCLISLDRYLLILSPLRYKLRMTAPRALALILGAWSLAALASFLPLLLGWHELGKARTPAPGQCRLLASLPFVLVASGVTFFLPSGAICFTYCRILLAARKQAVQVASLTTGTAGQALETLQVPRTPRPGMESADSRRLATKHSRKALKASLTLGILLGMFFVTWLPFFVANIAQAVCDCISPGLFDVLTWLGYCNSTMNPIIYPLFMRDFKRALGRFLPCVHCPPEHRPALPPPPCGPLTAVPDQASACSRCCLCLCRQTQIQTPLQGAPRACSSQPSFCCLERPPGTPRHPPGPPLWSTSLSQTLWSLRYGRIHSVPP

[6] = Rat microsome half-life; assay type: in vitro ADME; conditions: rat microsomes, read-out: Rat microsome T½ (mm)
[7] = Rat PK (0.05 mg/kg, iv), plasma and brain concentrations; assay type: in vivo; conditions: for Free B/P Ratio: free brain concentration divided by free plasma concentration
[8] = biological target: 78 targets (CEREP) other than the 5-HT6 receptor; assay: Selectivity panel, 78 targets (CEREP); assay type: binding; conditions: all but the 5-HT2B and 5-HT2A receptors, read-out: Ki at ancillary targets
[9] = biological target: Mk striatum 5-HT6 (Macaca mulatta, UniProt A0A5F7ZDI3); assay: Mk striatum 5-HT6 binding; parameters: species or system Mk (monkey)
Mk striatum 5-HT6, sequence (A0A5F7ZDI3 1-440): as the sequence (P50406 whole entry) above, with A41V, A49V, L141P, V304A, R342W, R393Q, Q406R, E429K, P432L, I437T counted along it

“1-(5-(3-(difluoromethoxy)phenylsulfonyl)-2-methoxyphenyl)-4-([^3H]methyl)-piperazine [Example 3]” showed a Hippo./Cer. ([1]; 3 min after dose) of 3.7, a Striatum/Cer. ([1]; 3 min after dose) of 10.4 and a Hippo./Cer. ([1]; 40 min after dose) of 1.4. The Striatum/Cer. ([1]; 40 min after dose) was 2.0.

In the case of `COc1ccc(S(=O)(=O)c2cccc(OC(F)F)c2)cc1N1CCN(C)CC1` [Example 1, 4-(5-(3-(difluoromethoxy)phenylsulfonyl)-2-methoxyphenyl)-1-methylpiperazin-1-ium chloride], the pKi [2] was 9.39, the “Selectivity for 5-HT6 v. 5-HT2A” value ([3]; ratio of human 5-HT2A Ki to human 5-HT6 Ki) was 475.6 × and the “Selectivity for 5-HT6 over 5-HT2A” value ([3]; text) was 475.6 fold. The “Selectivity for 5-HT6 over 5-HT2A” value ([3]; text, listed as Example (1)) was 475 fold, the pKi ([3]; text, read-out: Ki at 5-HT2A receptor) was 6.71 and the pKi [4] was 7.15. For the same compound, the “Selectivity for 5-HT6 over 5-HT2B” value [4] was 173.2 fold, the pKi [5] was 8.82 and the half-life [6] was 10 min. For the same compound, the “Free [brain]” value ([7]; 3 min after dose) was 53.4 ng/g, the “Plasma Conc.” value ([7]; 3 min after dose) was 49.2 ng/mL and the “Free B/P Ratio” value ([7]; 3 min after dose) was 1.1. The “Free [brain]” value ([7]; 5 min after dose) was 55.3 ng/g, the “Plasma Conc.” value ([7]; 5 min after dose) was 29.0 ng/mL and the “Free B/P Ratio” value ([7]; 5 min after dose) was 1.7. The pKi [8] was under 6.00.

For `CN1CCN(c2cccc3cc(S(=O)(=O)c4cccc(F)c4)cnc23)CC1` [GSK-215083, reference compound], the pKi ([3]; human 5-HT2A, read-out: Human 5-HT2A Ki) was 9.40 and the pKi [9] was 8.49.
